Legend:
KSHV Pr dimer = KSHV Pr dimer (Human herpesvirus 8 type P, UniProt Q2HRB6, S204G); format: binding
p53-MDM2 = conditions: cited from earlier work
KSHV Pr [1] = target: T1, KSHV Pr (Human herpesvirus 8 type P, UniProt Q2HRB6, S204G); assay: Inhibition kinetics; format: biochemical, human Kaposi's sarcoma-associated herpesvirus (KSHV)
[2] = Dynamic light scattering for particle formation; format: physicochemical
wt KSHV Pr = wt KSHV Pr (Human herpesvirus 8 type P, UniProt Q2HRB6, S204G); format: binding; conditions: 23 μM 13C-Met wt KSHV Pr, 1 molar equivalence inhibitor (24 μM)
KSHV Pr [3] = target: T1, KSHV Pr; format: biochemical, human Kaposi's sarcoma-associated herpesvirus (KSHV); conditions: substitution from meta position to para or ortho
[4] = 1 -10 μM concentration range of DD2

O=C(O)c1ccc(NC(=O)c2cccc(CC3CCCCC3)c2)c(Cc2ccccc2)c1 [Compound 1]
results in size exclusion chromatography and HSQC experiments compared with DD2 (KSHV Pr dimer; data not shown): produced similar results | inhibition of the interaction of p53-MDM2 (p53-MDM2): not found to inhibit

O=C(O)c1ccc(NC(=O)c2cccc(CC3CCCCC3)n2)c(Cc2ccccc2)c1 [Compound 2]
decrease in Vmax (KSHV Pr [1]; [4]): 3 fold | increase in KM (KSHV Pr [1]; [4]): 2.5 fold | type of inhibition (KSHV Pr [1]; Lineweaver–Burk analysis): mixed-type inhibitor | particle formation by dynamic light scattering [2]: did not show evidence of particle formation | elution profile of KSHV Pr (dimerization state) (KSHV Pr dimer; 5 μM wt KSHV Pr pre-incubated with 30 μM compound): eluted predominantly as a monomer | M197-dimer peak in 1H-13C HSQC (wt KSHV Pr): broadens beyond detection

O=C(O)c1ccc(NC(=O)c2ccc(CC3CCCCC3)cc2)c(Cc2ccccc2)c1 [Compound 4]
effect of moving the cyclohexylmethyl side chain on inhibition (SAR) (KSHV Pr [3]): diminished inhibition

O=C(O)c1ccc(NC(=O)c2ccccc2CC2CCCCC2)c(Cc2ccccc2)c1 [Compound 5]
effect of moving the cyclohexylmethyl side chain on inhibition (SAR) (KSHV Pr [3]): diminished inhibition

— paper PMC2752665 (Nature chemical biology, 2009)
